From patent US20240043386A1, “Modulators of the Cystic Fibrosis Transmembrane Conductance Regulator Protein and Methods of Use” (AbbVie Global Enterprises Ltd., priority 2021, published 2024)
Where two headings read alike, the source gives them in different places.

Columns and labels:
F508delCFTR = molecular target: T1, F508delCFTR (Homo sapiens, UniProt P13569, DEL508-508); experiment: Cell Surface Expression-Horse Radish Peroxidase (CSE-HRP) assay in CFBE41o-F508delCFTR-HRP cells; format: cell-based; settings: for EC50: CFBE41o-F508delCFTR-HRP cells, 18-24 hours at 33° C., luminescence
T1 construct: expressed in transfected cells; host or cells: CFBE41o- human lung-derived epithelial cell line, doxycycline-inducible expression
Experimental: A cellular assay for measuring the F508delCFTR cell surface expression after correction with test compounds either without or with a co-corrector (2 μM of 3-[(2R,4R)-4-({[1-(2,2-difluoro-1,3-benzodioxol-5-yl)cyclopropyl]carbonyl}amino)-7-methoxy-3,4-dihydro-2H-chromen-2-yl]benzoic acid), was developed in human lung derived epithelial cell line (CFBE4lo-) (Veit G et al, (2012) Mol Biol Cell. 23(21): 4188-4202). The development was achieved by expressing the F508delCFTR mutation along with a horseradish peroxidase (HRP) in the fourth exofacial loop, and then measuring the HRP activity using luminescence readout from these cells, CFBE4lo-F508delCFTR-HRP, that were incubated overnight with the test corrector compounds, either without or with the co-corrector. For this primary assay, the CFBE4lo-F508delCFTR-HRP cells were plated in 384-well plates (Greiner Bio-one; Cat 781080) at 4,000 cells/well along with 0.5 μg/mL doxycycline to induce the F508delCFTR-RP expression and further incubated at 37° C., 5% CO2 for 68-72 hours. The test compounds were then added either without or with a co-corrector at the required concentrations and further incubated for 18-24 hours at 33° C. The highest concentration tested was 20 μM or 30 μM (GI-1 to GIII-36) with an 8-point concentration response curve using a 3-fold dilution in both the test compound without or with the co-corrector. Three replicate plates were run to determine one EC50. All plates contained negative controls (dimethyl sulfoxide, DMSO) and positive control (2 μM or 3 μM (GI-1 to GIII-36) of 3-[(2R,4R)-4-({[1-(2,2-difluoro-1,3-benzodioxol-5-yl)cyclopropyl]carbonyl}amino)-7-methoxy-3,4-dihydro-2H-chromen-2-yl]benzoic acid) as well as on-plate concentration response of the positive control. Post incubation, the plates were washed 5× times with Dulbecco's phosphate buffered saline (DPBS), followed by the addition of the HRP substrate, luminol (50 μL), and measuring the HRP activity using luminescence readout on EnVision® Multilabel Plate Reader (Perkin Elmer; product number 2104-0010). The raw counts from the experiment were analyzed using Accelrys® Assay Explorer v3.3.
Z′ greater than 0.5 was used as passing quality control criteria for the plates. The Z′ is defined as:
1−[3*SDPositive Control+3*SDNegative Control/Absolute (MeanPositive Control−MeanNegative Control)]
The % activity measured at each of the 8 test concentrations of the test compound added either without or with a co-corrector (2 μM or 3 μM (GI-1 to GIII-36) of 3-[(2R,4R)-4-({[1-(2,2-difluoro-1,3-benzodioxol-5-yl)cyclopropyl]carbonyl}amino)-7-methoxy-3,4-dihydro-2H-chromen-2-yl]benzoic acid) was normalized to the on-plate positive control using the following formulae:
% activity (Test compound without co-corrector)=[(test compound without co-corrector response−DMSO response)/(positive control response−DMSO response)]*100
% activity (Test compound with co-corrector)=[(test compound with co-corrector response−DMSO response)/(positive control response−DMSO response)]*100
The maximum % activity achieved for the test compound either without or with a co-corrector at any tested concentration is presented in Table 3 along with the respective EC50's calculated using the following general sigmoidal curve with variable Hill slope equation (described as Model 42 in the Accelrys® Assay Explorer v3.3 software):
General sigmoidal curve with concentration, response, top, bottom, EC50 and Hill slope. This model describes a sigmoidal curve with an adjustable baseline, a. The equation can be used to fit curves where response is either increasing or decreasing with respect to the independent variable, “x”.

F508del/F508del CFTR = molecular target: T2, F508del/F508del CFTR (Homo sapiens, UniProt P13569, DEL508-508); experiment: Trans-Epithelial Current Clamp (TECC) assay using primary human bronchial epithelial cells; format: cell-based; settings: for Emax (% Dual): maximum percent activity relative to positive control (co-corrector 0.15 μM + potentiator 0.45 μM = 100%), primary hBE cells F508del/F508del; for EC50: primary hBE cells homozygous F508del/F508del, test C2 corrector with co-corrector and potentiator, 18-24 hours at 37° C., equivalent CFTR current (IEQ)/AUC
T2 construct: cells isolated from CF patients with the homozygous mutation; endogenous in cells; host or cells: primary human bronchial epithelial (hBE) cells from CF patients homozygous for F508del
Text: A cell-based assay was developed using the primary human bronchial epithelial cells (hBE cells) with F508del/F508del CFTR and other mutations.
Primary human bronchial epithelial (hBE) cells from CFTR patients with homozygous F508del/F508del mutation were expanded from 1×10^6 to 250×10^6 cells (Neuberger, T et al., 2011, Methods Mol Biol 741:39-54). For this purpose, cells isolated from CF patients with the homozygous mutation, procured from the CF center tissue procurement and cell culture core at the Marsico Lung Institute at UNC (Randell), the Cystic Fibrosis translational research center at McGill University (University), and Rosalind Franklin University Medical School (RFUMS) were seeded onto 24 well Corning (Cat #3378) filter plates that were coated with 3T3 conditioned media and grown at an air-liquid interface for 35 days using an Ultroser® G supplemented differentiation media. All the primary human bronchial epithelial cells were collected in accordance with institutional review board approval protocols. Apical surface mucus was removed 72 hours before the experiment by incubating the apical surface of the cells for 30 minutes with 3 mM dithiothreitol (DTT) prepared in Dulbecco's phosphate buffered saline (DPBS) with Ca^2+ and Mg^2+. This was followed with aspiration of the mucus from the apical surface along with DPBS. The apical surface was re-washed with phosphate buffered saline (PBS) incubated for 30 minutes followed with aspiration. These hBE cells were then incubated with the desired concentrations of the test C2 corrector compounds along with co-corrector, 4-[(2R,4R)-4-({[1-(2,2-difluoro-1,3-benzodioxol-5-yl)cyclopropyl]carbonyl}amino)-7-(difluoromethoxy)-3,4-dihydro-2H-chromen-2-yl]benzoic acid and potentiator, (5-{3-amino-5-[4-(trifluoromethoxy)benzene-1-sulfonyl]pyridin-2-yl}-1,3,4-oxadiazol-2-yl)methanol, for 18-24 hours at 37° C., 5% CO2. The desired concentrations of the correctors and potentiator compounds were prepared from the 10 mM stocks in differentiation media and were always applied on the basolateral side of the epithelial cells. We also used an assay format where a fixed concentration of potentiator was added chronically along with the corrector compounds. This chronic treatment with the potentiator helped eliminate any interaction that might happen with CFTR modulators (correctors and potentiators) and thereby determined the true efficacy of the modulator combinations reflective of clinical relevance.
The assay uses a Transepithelial Current Clamp (TECC) (Vu, C B et al., 2017; J Med Chem 60:458-473) instrument that can measure the functionality of the mutated channel by measuring the equivalent CFTR current (IEQ) generated by the polarized primary epithelial cells. We used a TECC-24 with a 24-channel electrode manifold allowing for the simultaneous measurement of the transepithelial voltage, VT, and transepithelial resistance, RT, under current clamp conditions, from 24 filters using a 24 well Costar filter plate. The design of the filters in the 24 well filter plates was exactly the same as the design of an individual Transwell filter used in the classical Ussing Chamber with a surface area of 0.33 cm^2. Each measured VT values were corrected for the electrode offset potential measured using buffer alone in a separate plate, and each measured RT values were then corrected for the combined solution series and empty filter resistances. The corrected VT and RT values were then used to calculate the equivalent current, IEQ using Ohm's law (IEQ=VT/RT). The area under the curve (AUC) for the time period between the forskolin peak IEQ response and at the time of bumetanide addition was also calculated using a one-third trapezoid method, in addition to calculating the IEQ. The assay was run in a 24-well format and all 24-wells were measured at the same time point giving a higher throughput for this assay. […]

[1] = without co-corrector, read-out: EC50 (without co-corrector)
[2] = with co-corrector (2 μM), read-out: EC50 (with co-corrector)
[3] = without co-corrector, normalized to on-plate positive control corrector (2 μM)

T1 sequence (P13569 with tags, fused parts or gaps DEL508-508): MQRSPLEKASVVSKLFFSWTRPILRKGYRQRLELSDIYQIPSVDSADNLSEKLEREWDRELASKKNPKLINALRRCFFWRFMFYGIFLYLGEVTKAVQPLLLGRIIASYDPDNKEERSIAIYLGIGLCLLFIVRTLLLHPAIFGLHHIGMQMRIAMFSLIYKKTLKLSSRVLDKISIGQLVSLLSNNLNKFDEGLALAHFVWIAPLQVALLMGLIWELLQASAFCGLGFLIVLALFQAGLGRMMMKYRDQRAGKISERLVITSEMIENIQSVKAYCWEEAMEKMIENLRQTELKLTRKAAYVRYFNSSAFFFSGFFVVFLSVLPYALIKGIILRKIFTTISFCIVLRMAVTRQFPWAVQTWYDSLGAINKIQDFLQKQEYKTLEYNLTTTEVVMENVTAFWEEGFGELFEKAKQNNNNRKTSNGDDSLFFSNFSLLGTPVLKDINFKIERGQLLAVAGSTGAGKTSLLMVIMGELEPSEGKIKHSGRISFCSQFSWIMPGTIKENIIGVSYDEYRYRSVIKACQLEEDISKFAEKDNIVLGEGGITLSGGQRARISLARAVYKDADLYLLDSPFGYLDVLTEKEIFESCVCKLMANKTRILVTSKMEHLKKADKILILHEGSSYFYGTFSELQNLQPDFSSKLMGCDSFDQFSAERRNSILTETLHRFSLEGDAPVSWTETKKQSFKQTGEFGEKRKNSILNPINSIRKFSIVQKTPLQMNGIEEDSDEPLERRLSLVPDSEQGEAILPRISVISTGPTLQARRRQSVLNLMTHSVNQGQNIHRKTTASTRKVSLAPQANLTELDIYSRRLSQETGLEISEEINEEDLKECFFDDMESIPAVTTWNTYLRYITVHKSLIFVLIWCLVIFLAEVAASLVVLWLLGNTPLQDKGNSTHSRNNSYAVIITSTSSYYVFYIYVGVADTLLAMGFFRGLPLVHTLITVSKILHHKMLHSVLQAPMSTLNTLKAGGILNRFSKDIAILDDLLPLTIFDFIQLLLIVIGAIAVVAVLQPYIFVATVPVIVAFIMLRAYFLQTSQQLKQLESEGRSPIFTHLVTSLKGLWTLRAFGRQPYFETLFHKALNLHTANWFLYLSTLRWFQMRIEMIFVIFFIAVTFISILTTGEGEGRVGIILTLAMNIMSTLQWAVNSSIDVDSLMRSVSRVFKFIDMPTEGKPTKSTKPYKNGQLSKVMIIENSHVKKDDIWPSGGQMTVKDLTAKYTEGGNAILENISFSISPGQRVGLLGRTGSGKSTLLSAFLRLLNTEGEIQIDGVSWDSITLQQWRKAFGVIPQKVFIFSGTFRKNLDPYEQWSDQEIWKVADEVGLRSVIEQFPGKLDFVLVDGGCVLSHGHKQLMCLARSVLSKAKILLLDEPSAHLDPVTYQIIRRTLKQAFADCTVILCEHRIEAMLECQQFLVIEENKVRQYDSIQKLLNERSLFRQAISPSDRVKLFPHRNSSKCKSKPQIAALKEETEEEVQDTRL
T2 sequence (P13569 with tags, fused parts or gaps DEL508-508): as above

Row | Compound | EC50 (F508delCFTR; [1]) [nM] | Emax (% Dual) (F508del/F508del CFTR) | EC50 (F508del/F508del CFTR) [nM] | EC50 (F508delCFTR; [2]) [nM] | Maximum % activity (without co-corrector) (F508delCFTR; [3]) [%] | Maximum % activity (with co-corrector) (F508delCFTR; with co-corrector (2 μM), normalized to on-plate positive control corrector (2 μM)) [%]
1 | COc1ccc(C)cc1[C@]1(C(=O)NS(=O)(=O)c2cccc3nc(C)ccc23)C[C@@H]1c1ccc(C(F)(F)F)cc1 (single isomer, unassigned) [Example 18] | 198 | 270 | 1.3 |  |  | 
2 | COc1ccc(C)cc1[C@@]1(C(=O)NS(=O)(=O)c2cccc3nc(C)ccc23)C[C@H]1c1cncc(F)c1 (racemic) [Example 42, rac-(1r,2s)-2-(5-fluoropyridin-3-yl)-1-(2-methoxy-5-methylphenyl)-N-(2-methylquinoline-5-sulfonyl)cyclopropane-1-carboxamide] | 1850 | 127 | 182 | 1150 | 690 | 
3 | COc1ccc(C)cc1[C@@]1(C(=O)NS(=O)(=O)c2cccc3nc(C)ccc23)C[C@H]1c1ccccc1C(F)(F)F (single isomer, unassigned) [Example 31] | 239 | 307 | 6.2 | 163 | 776 | 
4 | COc1cnc([C@@H]2C[C@]2(C(=O)NS(=O)(=O)c2cccc3nc(C)ccc23)c2cc(C)ccc2OC)cn1 (single isomer, unassigned) [Example 47] | 2210 | 247 | 85.2 | 1280 | 322 | 775
5 | COc1ccc(C)cc1[C@]1(C(=O)NS(=O)(=O)c2cccc3nc(C)ccc23)C[C@@H]1c1ccccc1F (single isomer, unassigned) [Example 25] | 1010 | 305 | 4.3 | 388 |  | 
6 | COc1cnc([C@H]2C[C@@]2(C(=O)NS(=O)(=O)c2cccc3nc(C)ccc23)c2cc(C)ccc2OC)cn1 (single isomer, unassigned) [Example 48] | 1780 | 401 | 47.1 | 1080 | 790 | 
7 | COc1ccc(C)cc1[C@@]1(C(=O)NS(=O)(=O)c2cccc3nc(C)ccc23)C[C@H]1c1cncc(C)n1 (racemic) [Example 35, rac-(1r,2r)-1-(2-methoxy-5-methylphenyl)-2-(6-methylpyrazin-2-yl)-N-(2-methylquinoline-5-sulfonyl)cyclopropane-1-carboxamide] | 1710 | 331 | 47.9 | 1220 | 582 | 
8 | COc1ccc(C)cc1[C@]1(C(=O)NS(=O)(=O)c2cccc3nc(C)ccc23)C[C@@H]1c1ccccc1 (single isomer, unassigned) [Example 3] | 2450 | 360 | 0.992 | 994 |  | 
9 | COc1ccc(C)cc1[C@]1(C(=O)NS(=O)(=O)c2cccc3nc(C)ccc23)C[C@@H]1c1cncc(C)n1 (single isomer, unassigned) [Example 46] | 2350 | 364 | 30.1 | 1520 | 783 | 
10 | COc1ccc(C)cc1[C@]1(C(=O)NS(=O)(=O)c2cccc3nc(C)ccc23)C[C@@H]1c1cnc(OC)c(OC)n1 [Example 80, (1S,2S)-2-(5,6-dimethoxypyrazin-2-yl)-1-(2-methoxy-5-methylphenyl)-N-(2-methylquinoline-5-sulfonyl)cyclopropane-1-carboxamide] | 1320 | 275 | 15.8 | 461 | 925 | 
11 | COc1ccc(C)cc1[C@]1(C(=O)NS(=O)(=O)c2cccc3nc(C)ccc23)C[C@@H]1c1ccccc1C(F)(F)F (single isomer, unassigned) [Example 30] | 263 | 313 | 46.6 | 260 | 589 | 
12 | CCOc1ncccc1[C@@H]1C[C@]1(C(=O)NS(=O)(=O)c1cccc2nc(C)ccc12)c1cc(C)ccc1OC (single isomer, unassigned) [Example 73] | 1440 | 230 | 30.6 | 785 | 539 | 
13 | COc1ccc(C)cc1[C@]1(C(=O)NS(=O)(=O)c2cccc3nc(C)ccc23)CC1c1cccc(Cl)n1 (stereo in doubt) [Example 105, (1S,2S)-2-(6-chloropyridin-2-yl)-1-(2-methoxy-5-methylphenyl)-N-(2-methylquinoline-5-sulfonyl)cyclopropane-1-carboxamide] | 1450 | 296 | 3.1 | 277 |  | 
